Measured values reported in article PMC8080595, “Discovery of a novel RORγ antagonist with skin-restricted exposure for topical treatment of mild to moderate psoriasis” (Scientific Reports, 2021).
Like-named read-outs stand apart in the source and are kept apart here.

Tests used:
[1] = Liver microsomal stability, human; type: in vitro ADME; settings: pH 7.4
Protocol: (§1) The compound was mixed with 0.5 mg/ml human liver microsome (Thermal Fisher) at a final concentration of 1 µM in 100 mM potassium phosphate buffer, pH 7.4. The reactions were initiated by the addition of 1 mM NADPH. Samples in duplicate were incubated at 37 °C with mixing. 100 µL aliquots were transferred after 0, 5, 10, 30, 45, 60 minutes to a new tube with 300 µL acetonitrile, incubated on ice for 30 minutes, centrifuged at 1800×g at 4 °C for 10 minutes. The supernatants were transferred to glass vials subjected to LC/MS analysis. Peak areas were measured to calculate half-life according to the formula t1/2 = − 0.693/slope of linear regression analysis of ln [concentration] versus incubation time. Similar methods were applied to access mouse and rat liver microsomal stability of the compounds.

Oral PK in SD rats = type: in vivo; settings: male, rat, plasma; for AUC: read-out: Exposure in SD Rat, AUC; for Cmax: read-out: Exposure in SD Rat, Cmax; for half-life: read-out: Exposure in SD Rat, t1/2 (converted)
Protocol: Compounds were dissolved in 5% DMSO, 5% tween 80 and then added 90% saline. Male SD rats were dosed with the compound via oral (2 mg/kg or 5 mg/kg) routes, respectively after fasting overnight. Blood of the animals were collected at indicated time post dosing. Blood samples were then prepared for plasma and analyzed for the compounds using validated LC/MS assays. The experimental protocol used in this study was approved by IACUC. The experiments were conducted in accordance with the Guiding Principles for the Care and Use of Laboratory Animals and complied with the ARRIVE guidelines.

[2] = Liver microsomal stability, rat; type: in vitro ADME; settings: liver microsomes, pH 7.4, read-out: Liver microsomal stability, t1/2, Rat
Protocol: as §1

RORγ LBD = molecular target: T1, RORγ LBD (Homo sapiens, UniProt P51449); assay: LanthaScreen TR-FRET human RORγ coactivator assay; type: biochemical; settings: antagonist mode, read-out: Binding of RORγ LBD, IC50
T1 construct: The assay was performed with GST-tag RORγ LBD (25 ng/reaction, Creative Biomart); purchased Creative Biomart
T1 sequence (P51449 269-508 limits assumed): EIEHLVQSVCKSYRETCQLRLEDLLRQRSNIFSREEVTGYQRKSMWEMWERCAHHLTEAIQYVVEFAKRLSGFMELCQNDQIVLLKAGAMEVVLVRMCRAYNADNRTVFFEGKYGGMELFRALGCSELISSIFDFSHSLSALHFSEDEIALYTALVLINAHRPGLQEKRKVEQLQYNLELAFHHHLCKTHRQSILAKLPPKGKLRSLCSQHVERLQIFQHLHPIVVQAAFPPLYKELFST
From the text: In LanthaScreen TR-FRET RORγ coactivator assay, the RORγ LBD was constitutively active and the coactivator peptide (fluorescein-D22) was recruited in the absence of ligand, or compound (Fig. 2a). The binding of an antagonist to RORγ LBD causes a conformational change of the receptor, leading to a decrease in the affinity of the receptor for the coactivator peptide. The separation of the fluorescently labeled coactivator peptide from RORγ LBD from the receptor with the terbium-labeled antibody causes a decrease in the TR-FRET signal compared to those without compound. The assay was validated by detecting the ligand-independent recruitment of coactivator peptide in the presence or absence of RORγ LBD (2.5- to 3-fold assay window). Effects of the key compounds of the novel chemotype in Fig. 1, were tested in LanthaScreen TR-FRET RORγ coactivator assay.
The assay was performed with GST-tag RORγ LBD (25 ng/reaction, Creative Biomart), 0.6 μM Fluorescein-D22 coactivator peptide and 8 nM Tb anti-GST antibody (Invitrogen) at room temperature for 60 minutes. The fluorescent signals were measured with 520 nm emission and 495 nm excitation on Tecan Infinite. The data were calculated using DMSO control as 0% inhibition and non-protein control as 100% inhibition. IC50 values were calculated using non-linear regression analysis of GraphPad Prism in all assays.

[3] = tested on: IL-17 secretion from human PBMCs; assay: Human IL-17 production assay using human PBMC; type: cell-based; settings: cytostim stimulation 72 h
Protocol: To confirm cellular on-target effects, we investigated the inhibition of selected RORγ antagonists on RORγ-regulated IL-17 secretion using human PBMC. Human IL-17-producing cells were readily formed following cytostim stimulation. In human PBMC stimulated with cytostim for 72 h, differentiation of Th17 cells was confirmed by increased secretion of IL-17 (291 pg/mL) in cell culture supernatant compared to basal level of IL-17 (20 pg/mL IL-17 without cytostim stimulation), […] of IL-17 secretion.
Human PBMCs (Zenbio) in TexMACS media were stimulated by cytostim (Miltenyi) for 72 h following the vendor's instruction. Human IL-17A in cell culture supernatant was measured using AlphaLISA human IL-17A Biotin-free detection kit (Perkin Elmer) according to the manufacturer’s protocol.

[4] = Liver microsomal stability, mouse; type: in vitro ADME; settings: liver microsomes, pH 7.4, read-out: Liver microsomal stability, t1/2, Mouse
Protocol: as §1

psoriasis [5] = tested on: psoriasis; set-up: method as in PMID 29150844; settings: ointment 0.03%, 0.1%, 0.8% and 4%, all doses; cited from earlier work
[6] = tested on: IMQ-induced mouse psoriasis-like inflammation model; set-up: method as in PMID 26870941; settings: 1% GSK2981278 ointment vs placebo + IMQ control; cited from earlier work
psoriasis [7] = tested on: psoriasis; set-up: method as in PMID 27852111; settings: oral, phase 2a, cited from earlier work
[8] = human, liver microsomes, 1 µM compound, 0.5 mg/ml microsome, NADPH, 37 °C, read-out: Liver microsomal stability, t1/2, Human

CCS(=O)(=O)c1ccc(Cc2nc3c(Cl)c(-c4ccccc4OC(F)(F)F)c(Cl)cc3[nH]2)c(Cl)c1 [Compound 1, 4,6-dichloro-2-(2-chloro-4-(ethylsulfonyl)benzyl)-5-(2-(trifluoromethoxy)phenyl)-1H-benzo[d]imidazole]
half-life at 1 µM [1, 8]: > 120 min | AUC (Oral PK in SD rats; 5 mg/kg oral): 6980 ng·h/mL | Cmax (Oral PK in SD rats; 5 mg/kg oral): 446 ng/mL | half-life (Oral PK in SD rats; 5 mg/kg oral): 768 min | half-life at 1 µM [2]: > 120 min | IC50 (RORγ LBD): 0.062 ± 0.018 µM | EC50 [3]: 0.03 ± 0.01 µM

CCS(=O)(=O)c1ccc(Cc2nc3c(Cl)c(N4CCC(F)(F)CC4)c(Cl)cc3[nH]2)cc1 [Compound 2, 4,6-dichloro-5-(4,4-difluoropiperidin-1-yl)-2-(4-(ethylsulfonyl)benzyl)-1H-benzo[d]imidazole]
half-life at 1 µM [1, 8]: 18.5 min | half-life at 1 µM ([1]; range across human, rat and mouse liver microsomes, read-out: t1/2 in human, rat and mouse liver microsome stability assays): 7.8 to 34.5 min | half-life at 1 µM [4]: 7.8 min | AUC (Oral PK in SD rats; 2 mg/kg oral): 352 ng·h/mL | Cmax (Oral PK in SD rats; 2 mg/kg oral): 70 ng/mL | half-life (Oral PK in SD rats; 2 mg/kg oral): 120 min | half-life at 1 µM [2]: 34.5 min | IC50 (RORγ LBD): 0.04 ± 0.027 µM | EC50 [3]: 0.046 ± 0.002 µM

CCc1ccc(N(CC(C)C)S(=O)(=O)c2ccc(OCC3CCOCC3)c(CO)c2)cc1 [GSK2981278]
Infiltrate thickness (psoriasis [5]): not changed | reduction of epithermal thickness [6]: 23%

CCS(=O)(=O)c1ccc(CNC(=O)c2cnc3c(c2)CN(C[C@H]2CC[C@H](C(F)(F)F)CC2)[C@H]3C(C)C)nc1 [VTP43742]
efficacy in psoriatic patients (psoriasis [7]; four-week period): clear signal of efficacy | transaminase (psoriasis [7]): elevations of reversible transaminase
